Data on 30 compounds can be found in patent US7186831B2, “5-halo-2-alkyl[1,2,4]triazolo[1,5-a]pyrimidin-7-amines” (priority 2001, dated 2007).

A short description of the data set: log P by HPLC. It is filed as physicochemical.
Where [1] appears, read: HPLC, gradient method, acetonitrile/0.1% aqueous phosphoric acid, EEC directive 79/831 Annex V. A8.
Setting [2] is: EEC directive 79/831 Annex V. A8 by HPLC (gradient method, acetonitrile/0.1% aqueous phosphoric acid).

Under setting [1], `Cc1nc2nc(Cl)c(-c3c(F)cccc3F)c(NC(C)C(F)(F)F)n2n1` (stereo not drawn) [compound 182] showed a logP of 2.78.
Take `OC1CCN(c2c(-c3ccc(F)cc3F)c(Cl)nc3nc(C4CC4)nn23)C1` (stereo not drawn) [compound 603]: under setting [1], the logP was 2.2.
For `C=C(C)CN(C)c1c(-c2ccccc2Cl)c(Cl)nc2nc(C)nn12` [compound 223], the logP under setting [1] is recorded as 3.57.
Under setting [1], `CCc1nc2nc(Cl)c(-c3c(F)cc(F)cc3F)c(N3CCC(C(F)(F)F)CC3)n2n1` [compound 2] came in with a logP of 3.99.
Same read-out and setting: the figure for `Cc1nc2nc(Cl)c(-c3ccc(F)cc3Cl)c(N3CCCCO3)n2n1` [compound 589] is 3.23; for `CCNc1c(-c2ccc(F)cc2F)c(Cl)nc2nc(C)nn12` [compound 687] it is 3.08; for `CC(C)Nc1c(-c2ccccc2Cl)c(Cl)nc2nc(C3CC3)nn12` [compound 17] it is 3.39.
As to `CC(Nc1c(-c2c(F)cc(F)cc2F)c(Br)nc2nc(C(F)(F)F)nn12)C(F)(F)F` (stereo not drawn) [compound 25], the logP under setting [1] came to 3.99.
The same measure, in the same setting: the same measure for `Cc1nc2nc(Cl)c(-c3ccccc3Cl)c(NC3CC3)n2n1` [compound 215]: 2.54; for `CCNc1c(-c2ccc(F)cc2F)c(Cl)nc2nc(C3CC3)nn12` [compound 712]: 2.97.
On the same count and under the same terms, the figure for `COCCN(C)c1c(-c2ccc(F)cc2Cl)c(Cl)nc2nc(C3CC3)nn12` [compound 628] is 3.46.
`COCCNc1c(-c2c(F)cc(F)cc2F)c(Cl)nc2nc(C(F)(F)F)nn12` [compound 107] had a logP under setting [1] of 3.38.
For `Fc1cccc(Cl)c1-c1c(Cl)nc2nc(C3CC3)nn2c1N1CCOCC1` [compound 709], the logP under setting [1] was 3.05.
In turn, `Cc1nc2nc(Cl)c(-c3ccccc3Cl)c(N3CCC(F)CC3)n2n1` [compound 402] gave a logP under setting [2] of 3.05.
On to `CCN(CCOC)c1c(-c2ccccc2Cl)c(Cl)nc2nc(C)nn12` [compound 225], for which, under setting [1], the logP is recorded as 2.94.
The same measure, in the same setting: the figure for `Cc1nc2nc(Cl)c(-c3c(F)cccc3F)c(N(C)CCC#N)n2n1` [compound 563] is 2.17; for `CCCN(CC1CCCO1)c1c(-c2ccc(F)cc2F)c(Cl)nc2nc(C(F)(F)F)nn12` (stereo not drawn) [compound 552] it is 4.77.
With `C#CCN(C)c1c(-c2c(F)cccc2F)c(Cl)nc2nc(C)nn12` [compound 331], the logP under setting [2] is 2.54.
`Fc1cccc(F)c1-c1c(Cl)nc2nc(C3CC3)nn2c1N1CCCC1` [compound 679] yielded a logP under setting [1] of 3.25.
Regarding `Cc1nc2nc(Cl)c(-c3ccccc3F)c(NOC3CCCCO3)n2n1` (stereo not drawn) [compound 375], under setting [2], the logP turned out to be 2.59.
In turn, `CCC1=CCN(c2c(-c3ccc(F)cc3F)c(Cl)nc3nc(C4CC4)nn23)CC1` [compound 511] had a logP under setting [2] of 4.59.
As for `Cc1nc2nc(Cl)c(-c3c(F)cccc3Cl)c(NC(C)C(C)C)n2n1` (stereo not drawn) [compound 688], the logP under setting [1] turned out to be 3.43.
In turn, `CN(C)CCCN(C)c1c(-c2ccc(F)cc2F)c(Cl)nc2nc(C3CC3)nn12` [compound 665] returned a logP under setting [1] of 1.61.
The compound `C=C(C)CNc1c(-c2c(F)cccc2F)c(Cl)nc2nc(C)nn12` [compound 183] displayed a logP under setting [1] of 2.56.
On to `CC(C)CN(C)c1c(-c2ccccc2Cl)c(Cl)nc2nc(C3CC3)nn12` [compound 497], for which, under setting [2], the logP is 4.41.
`CN(Cc1ccco1)c1c(-c2ccc(F)cc2F)c(Cl)nc2nc(C3CC3)nn12` [compound 667] yielded a logP under setting [1] of 3.63.
Under setting [2], `Cc1nc2nc(Cl)c(-c3c(F)cccc3Cl)c(N3CCSCC3)n2n1` [compound 259] gave a logP of 3.18.
On to `Cc1nc2nc(Cl)c(-c3ccc(F)cc3F)c(NCC(C)(C)C)n2n1` [compound 193], for which the logP under setting [1] turned out to be 3.4.
On the same count and under the same terms, the same measure for `CCCN(CC1CCCO1)c1c(-c2c(F)cc(F)cc2F)c(Cl)nc2nc(C)nn12` (stereo not drawn) [compound 163]: 3.68.
Turning to `Cc1nc2nc(Cl)c(-c3c(F)cccc3F)c(Nc3ccc(F)cc3)n2n1` [compound 445], the logP under setting [2] is given as 2.71.

By logP is commonly meant a log measure of how a compound divides between an organic and an aqueous phase.
